# Test results published in patent publication US9474759B2 (priority 2011, dated 2016).
# Read-outs that look alike come from different tables or passages of the source.
# Tests used:
# [1] = tested on: Norwalk virus (HG23 cells); assay: microbe, parasite or virus in culture; format: cell-based; conditions: HG23, read-out: Inhibition [ED50 (μM)] against various viruses: Calicivirus, HG23 cells
# [2] = tested on: FCV; assay: Cell-based screening, FCV in CRFK cells (Example 2); conditions: Feline calicivirus; CRFK cells; read-out: Inhibition [ED50 (μM)] against various viruses: Calicivirus, FCV
# Method: (§1) 3. Cell-based screening of inhibitor. The effects of each inhibitor on the viral replication were examined. The list of viruses and corresponding cell lines are listed above in Table 2. Briefly, confluent cells were inoculated with virus at a MOI of 5 or 0.05 for 1 hr, and medium was replaced with medium containing mock-medium or each compound (up to 100 μM). The virus infected cells were further incubated for up to 96 hrs, and the replication of virus was measured by TCID50 assay with the 10-fold dilution of each sample used for virus titration (Reed and Muench, 1938). In some viruses, the virus protein and genome expression levels were detected by Western blot analysis and real-time qRT-PCR, respectively, as described below. The IC50s of the compounds were calculated.
# [3] = tested on: MNV-1; assay: Cell-based screening, MNV-1 in RAW267.4 cells (Example 2); design: species or system murine norovirus; conditions: Norwalk virus; RAW267.4 cells; read-out: Inhibition [ED50 (μM)] against various viruses: Calicivirus, MNV-1
# Method: as §1
# [4] = tested on: TGEV; assay: Cell-based screening, TGEV in ST cells (Example 2); design: species or system transmissible gastroenteritis virus; conditions: Alphacoronavirus 1; ST cells; read-out: Inhibition [ED50 (μM)] against various viruses: Coronavirus, TGEV
# Method: as §1
# [5] = tested on: FIPV; assay: Cell-based screening, FIPV in CRFK cells (Example 2); design: species or system feline infectious peritonitis virus; conditions: Alphacoronavirus 1; CRFK cells; read-out: Inhibition [ED50 (μM)] against various viruses: Coronavirus, FIPV
# Method: as §1
# [6] = tested on: 229E; assay: Cell-based screening, 229E in MRC-5 cells (Example 2); conditions: Human coronavirus 229E, MRC5; MRC-5 cells; read-out: Inhibition [ED50 (μM)] against various viruses: Coronavirus, 229E
# Method: as §1
# [7] = tested on: HAV; assay: Cell-based screening, HAV (Example 2); design: species or system hepatitis A virus; conditions: Picornaviridae; read-out: Inhibition [ED50 (μM)] against various viruses: Picornavirus, HAV
# Method: as §1
# [8] = tested on: Teschovirus; assay: organism not typed; format: cell-based, porcine teschovirus; conditions: read-out: Inhibition [ED50 (μM)] against various viruses: Picornavirus, Teschovirus
# [9] = tested on: EV71; assay: Cell-based screening, EV71 in Vero cells (Example 2); design: species or system enterovirus 71; conditions: Enterovirus A, EV71; Vero cells; read-out: Inhibition [ED50 (μM)] against various viruses: Picornavirus, EV71
# Method: as §1
# [10] = molecular target: recombinant 3C or 3CL of MD145 (Norovirus Hu/GII.4/MD145-12/1987/US (Maryland virus), UniProt Q8V0P3); assay: FRET protease assay, MD145 3CL (Example 2); format: biochemical, norovirus strain MD145
# [11] = tested on: FCV; assay: Cell culture system, FCV replication in CRFK cells (Example 3); format: cell-based, feline calicivirus; conditions: Feline calicivirus; cell-based assay, CRFK cells; read-out: IC50 against FCV replication
# [12] = molecular target: TGEV 3CL protease (Porcine transmissible gastroenteritis coronavirus, UniProt P0C6Y5); assay: FRET-based protease assay, TGEV 3CL protease (Example 5); format: biochemical, TGEV Miller strain; conditions: TGEV 3CL protease; read-out: IC50 against 3CL protease in the FRET assay
# Source text: The 3CL proteases are highly conserved among all coronaviruses, and feline coronavirus 3CL protease is closely related TGEV 3CL protease. Therefore we cloned and expressed the TGEV 3CL protease for the FRET assay. The cDNA encoding the full length of 3CL protease of TGEV Miller strain was amplified with RT-PCR as previously described. The primers contained the nucleotide sequence of the 3CL protease for cloning as well as the nucleotides for 6 Histidine in the forward primer. The amplified product was subcloned to pET-28a(+) vector (GenScript, Piscataway, N.J.). The expression and purification of the 3CL protease was performed with a standard method described previously by our lab (Chang et al., 2012b; Takahashi et al., 2012; Tiew et al., 2011).
# Our protease inhibitor compounds and commercial cathepsin inhibitors CA074-Me and E64d were prepared in DMSO as stock solutions (10 mM), and further diluted in assay buffer consisting of 20 mM HEPES, 0.4 mM EDTA, 30% glycerol, 120 mM NaCl, and 4 mM DTT at pH 6. […] TGEV 3CL protease at a final concentration of 0.1˜0.2 μM and the substrate (Dabcyl-[…]-Edans; SEQ ID NO:2) at 10 μM were used for the studies. The substrate was purchased from Bachem Americas, Inc (Torrance, Calif.). Compounds at various concentrations (0˜50 μM) were pre-incubated with TGEV 3CL protease in 25 μl for 30 min at 37° C., and the same volume of substrate was added to a 96-well black plate. The mixtures were then incubated at 37° C. for 60 min, and fluorescence readings were obtained on a microplate reader at 360 nm excitation and 480 nm emission wavelengths. The relative fluorescence units (RFU) were calculated by subtracting background (substrate control well without protease) from the fluorescence readings. The dose-dependent FRET inhibition curves were fitted with variable slope (four parameters) using GraphPad Prism software (La Jolla, Calif.) in order to determine the compound concentration that gives a half-maximum response (IC50).
# [13] = tested on: FECV-1683; assay: FECV-1683 replication in CRFK cells, TCID50 method; format: cell-based, feline coronavirus; conditions: Alphacoronavirus 1, MOI 0.05, mean ± SEM
# Method: (§2) Crandell Rees feline kidney (CRFK) cells were maintained in minimal essential medium containing 2-5% fetal bovine serum and antibiotics (chlortetracycline [25 μg/ml], penicillin [250 U/ml], and streptomycin [250 μg/ml]). FIPV WSU 79-1146 and FECV WSU 79-1683 strains are the prototypes of serotype II FIPV or FECV, respectively, and were purchased from ATCC (Manassas, Va.).
# (§3) The cells were further incubated in the presence of each compound for 1 hr at 37° C. Then […] or FECV-1683 was inoculated to the cells at a multiplicity of infection (MOI) of 0.05 or 5.
# (§4) b. TCID50 Method. A standard TCID50 method with the 10-fold dilution of each sample was used for virus titration.
# [14] = tested on: FIPV-1146; assay: FIPV-1146 replication in CRFK cells, TCID50 method; format: cell-based, feline coronavirus; conditions: Alphacoronavirus 1, MOI 0.05, mean ± SEM
# Method: as §2, §3, §4
# [15] = molecular target: MD145 3CLpro (codon-optimized, full-length, N-terminal 6 His, recombinant) (Lordsdale virus, UniProt P54634); assay: biochemical; design: species or system norovirus strain MD145 (human norovirus GII)
# [16] = molecular target: MNV-1 3CLpro (codon-optimized, full-length, recombinant) (Norovirus, UniProt Q80J95); assay: biochemical; design: species or system murine norovirus-1 (GV)
# [17] = molecular target: NV 3CLpro (codon-optimized, full-length, N-terminal 6 His, recombinant) (Norovirus, UniProt Q83883); assay: biochemical; design: species or system norovirus strain Norwalk
# [18] = molecular target: PV 3Cpro (codon-optimized, N-terminal 6 His, recombinant) (Poliovirus type 1, UniProt P03300); assay: biochemical; design: species or system poliovirus (poliomyelitis virus)
# [19] = molecular target: FMDV 3Cpro (codon-optimized, N-terminal 6 His, recombinant) (Foot-and-mouth disease virus serotype O, UniProt P03305); assay: biochemical
# [20] = tested on: MNV-1; assay: microbe, parasite or virus in culture; conditions: Norwalk virus, read-out: Initial IC50 values against MNV-1
# Chain of FMDV 3Cpro (codon-optimized, N-terminal 6 His, recombinant) (P03305 1650-1862 limits assumed): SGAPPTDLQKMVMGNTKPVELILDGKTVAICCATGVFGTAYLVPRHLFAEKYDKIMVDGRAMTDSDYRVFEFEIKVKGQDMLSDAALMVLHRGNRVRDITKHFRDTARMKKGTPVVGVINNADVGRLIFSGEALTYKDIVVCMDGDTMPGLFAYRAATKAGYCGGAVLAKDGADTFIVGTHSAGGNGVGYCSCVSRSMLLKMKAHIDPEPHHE
# Chain of MNV-1 3CLpro (codon-optimized, full-length, recombinant) (Q80J95 995-1177): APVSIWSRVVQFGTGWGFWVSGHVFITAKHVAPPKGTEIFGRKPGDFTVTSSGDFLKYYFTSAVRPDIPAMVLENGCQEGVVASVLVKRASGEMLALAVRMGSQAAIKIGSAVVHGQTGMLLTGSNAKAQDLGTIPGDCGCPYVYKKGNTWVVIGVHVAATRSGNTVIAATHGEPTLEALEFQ
# Chain of TGEV 3CL protease (P0C6Y5 2879-3180): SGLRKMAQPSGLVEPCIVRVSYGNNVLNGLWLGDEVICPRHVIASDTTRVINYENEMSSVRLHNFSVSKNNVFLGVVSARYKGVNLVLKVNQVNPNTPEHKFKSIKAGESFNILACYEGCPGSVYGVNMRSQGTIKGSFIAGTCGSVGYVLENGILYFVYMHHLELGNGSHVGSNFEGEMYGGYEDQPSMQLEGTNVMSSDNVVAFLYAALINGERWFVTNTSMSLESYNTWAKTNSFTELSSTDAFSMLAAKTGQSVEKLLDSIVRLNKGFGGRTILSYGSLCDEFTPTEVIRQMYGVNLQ
# Chain of MD145 3CLpro (codon-optimized, full-length, N-terminal 6 His, recombinant) (P54634 1009-1189): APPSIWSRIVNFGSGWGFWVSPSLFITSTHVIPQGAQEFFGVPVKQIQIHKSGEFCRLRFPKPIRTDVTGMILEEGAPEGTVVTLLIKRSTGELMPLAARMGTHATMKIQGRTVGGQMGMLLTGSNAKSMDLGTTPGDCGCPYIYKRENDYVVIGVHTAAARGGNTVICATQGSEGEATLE
# Chain of NV 3CLpro (codon-optimized, full-length, N-terminal 6 His, recombinant) (Q83883 1101-1281): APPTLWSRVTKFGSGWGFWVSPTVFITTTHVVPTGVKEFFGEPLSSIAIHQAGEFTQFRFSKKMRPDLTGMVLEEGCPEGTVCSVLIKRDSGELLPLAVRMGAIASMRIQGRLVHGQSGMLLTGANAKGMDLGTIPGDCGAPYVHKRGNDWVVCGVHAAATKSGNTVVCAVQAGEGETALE
# Chain of recombinant 3C or 3CL of MD145 (Q8V0P3 entry or part of it): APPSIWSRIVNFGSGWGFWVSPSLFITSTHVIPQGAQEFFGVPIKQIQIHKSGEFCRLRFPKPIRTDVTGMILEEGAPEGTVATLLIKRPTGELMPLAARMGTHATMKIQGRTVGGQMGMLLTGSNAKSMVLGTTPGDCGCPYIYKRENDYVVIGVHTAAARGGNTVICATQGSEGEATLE
# Chain of PV 3Cpro (codon-optimized, N-terminal 6 His, recombinant) (P03300 1566-1748 limits assumed): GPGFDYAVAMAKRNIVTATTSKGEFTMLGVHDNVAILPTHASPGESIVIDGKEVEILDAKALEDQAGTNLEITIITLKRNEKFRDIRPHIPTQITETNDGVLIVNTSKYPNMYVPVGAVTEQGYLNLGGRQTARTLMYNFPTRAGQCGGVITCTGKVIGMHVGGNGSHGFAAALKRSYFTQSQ
structure (smiles),measurement,setting,value
CC(C)C[C@H](NC(=O)OCc1ccccc1)C(=O)N[C@@H](CC1CCNC1=O)C(O)S(=O)(=O)O (stereo partly shown) [GC376],EC50,[1],1.8 µM
same,EC50,[2],35 µM
same,EC50,[3],5.3 µM
same,EC50,[4],0.15 µM
same,EC50,[5],0.2 µM
same,EC50,[6],0.3 µM
same,EC50,[7],50 µM
same,EC50,[8],0.15 µM
same,EC50,[9],10 µM
same,IC50,[10],9.8 µM
same,IC50,[11],35000 nM
same,IC50,[12],820 nM
same,EC50,"[13]; 24 hr post infection, read-out: Inhibition [ED50 (μM)] against FECV-1683, 24 hrs",0.17 ± 0.11 µM
same,EC50,"[13]; 48 hr post infection, read-out: Inhibition [ED50 (μM)] against FECV-1683, 48 hrs",0.28 ± 0.1 µM
same,EC50,"[14]; 24 hr post infection, read-out: Inhibition [ED50 (μM)] against FIPV-1146, 24 hrs",0.15 ± 0.05 µM
same,EC50,"[14]; 48 hr post infection, read-out: Inhibition [ED50 (μM)] against FIPV-1146, 48 hrs",0.3 ± 0.1 µM
same,IC50,[15],960 nM
same,IC50,[16],1120 nM
same,IC50,[17],490 ± 50 nM
same,IC50,[18],1770 ± 310 nM
same,IC50,[19],1160 ± 750 nM
same,IC50,[20],6200 to 7100 nM
